The values below come from PubChem BioAssay AID1996.

The structures appear in SMILES notation. Values after ≈ are worked out from the molar mass of the structure shown.

One may read the solubility (kinetic) as the concentration staying in solution when a stock, usually in DMSO, is diluted into the medium.

The conditions of the data set: buffer; pH 7.4; 200.0 µM.
Regarding `Nn1c(SCC(=O)NCCc2ccc(S(N)(=O)=O)cc2)nnc1C1CCCCC1`, the solubility (kinetic) is over 65.8 µg/mL.

The compound `O=C(CSc1nncs1)NC(=O)NC1CCCC1` showed a kinetic solubility of over 43 µg/mL.

In the case of `Cc1cccc(C(=O)NCCCNC(=O)c2cccnc2)c1`, the solubility (kinetic) was 41.6 µg/mL (≈ 140 µM).

Turning to `CSc1nc(-c2ccc(C)cc2)nc(N)c1C#N`, the solubility (kinetic) is under 0.1 µg/mL.

The compound `CC(=O)N(CCc1cccc(C)c1)Cc1cc2ccc(C)cc2[nH]c1=O` registered a solubility (kinetic) of 5.1 µg/mL (≈ 14.6 µM).

In turn, `CCOc1ccccc1NC(=S)NC(=O)C1CCCCC1` had a kinetic solubility of 0.6 µg/mL (≈ 1.96 µM).

The compound `Cc1ccc(CSCC(=O)Nc2ccccc2C(=O)O)cc1` came in with a solubility (kinetic) of over 47.3 µg/mL.

In turn, `Cc1cc(C(=O)CN2C(=O)NC3(CCC(C)CC3)C2=O)c(C)n1C` (stereo unspecified) yielded a kinetic solubility of 13.3 µg/mL (≈ 40.1 µM).

`CCOC(=O)C(=CNc1ccccc1N1CCOCC1)C(=O)OCC` showed a solubility (kinetic) of 45.6 µg/mL (≈ 131 µM).

`CN(C)Cc1cc2ccccc2c2c1COC2`: the kinetic solubility was determined as 31.5 µg/mL (≈ 139 µM). This solubility kinetic and that of the compound before are within 1.5-fold of each other.

As for `O=C1CNC(=S)N1C(CO)c1ccccc1` (stereo unspecified), the solubility (kinetic) was over 35.4 µg/mL.

On to `CN(C(=O)CSc1cccc[n+]1[O-])c1ccccc1`, for which the kinetic solubility came out at 35.5 µg/mL (≈ 129 µM).

`C/C(Cl)=C\Cn1c(N2CCCC2)nc2c1c(=O)n(C)c(=O)n2C` showed a solubility (kinetic) of 40.9 µg/mL (≈ 121 µM).

`Cc1ccc2c(c1)N(CC(=O)N1CCC(O)CC1)C(=O)CO2`: the kinetic solubility was over 45.7 µg/mL.

For the compound `O=C(NCc1ccc2c(c1)OCO2)Nc1ccc2ccccc2c1`, the kinetic solubility stood at 1.3 µg/mL (≈ 4.06 µM).

For the compound `CC(=O)NCCN1C(=O)S/C(=C\c2cccs2)C1=O`, the solubility (kinetic) is over 44.5 µg/mL.

In the case of `O=C(NCC1CCCCC1)c1cccc([N+](=O)[O-])c1`, the kinetic solubility is 20.2 µg/mL (≈ 77 µM).

Turning to `Cc1ccc(S(=O)(=O)N2CCN(c3ccc([N+](=O)[O-])cn3)CC2)cc1`, the solubility (kinetic) was under 0.2 µg/mL.

In turn, `CC(=O)Oc1ccc2nc(-c3ccco3)oc(=O)c2c1` yielded a solubility (kinetic) of 27.7 µg/mL (≈ 102 µM).

The compound `COC(=O)Cc1nc(Nc2ccccc2)sc1C` came in with a solubility (kinetic) of 34.3 µg/mL (≈ 131 µM).

Turning to `COCc1nnc(NC(=O)CCS(=O)(=O)c2ccccc2)s1`, the kinetic solubility is over 51.2 µg/mL.

As to `CCOc1ccc(C(=O)NCc2ccc3c(c2)OCO3)cc1OCC`, the kinetic solubility came to 1.2 µg/mL (≈ 3.49 µM).

Consider `O=C(/C=C/c1ccccc1Cl)N1CCOCC1`, for which the solubility (kinetic) came to 36.6 µg/mL (≈ 145 µM).

`CCOc1ccc(C(=O)CCC(=O)Nc2ccc(C)cn2)cc1` showed a solubility (kinetic) of 5.6 µg/mL (≈ 17.9 µM).

As for `COc1ccc(C(=O)N/C(=C\c2ccco2)C(=O)OCc2ccco2)cc1`, the solubility (kinetic) was over 55.1 µg/mL.

`Cc1ccc(C)c(OC(=O)CN2C(=O)c3ccccc3C2=O)c1` yielded a kinetic solubility of 4 µg/mL (≈ 12.9 µM).

Consider `O=C(O)c1cccc([N+](=O)[O-])c1C(=O)Nc1ccc2ccccc2c1`, for which the solubility (kinetic) came out at 35.4 µg/mL (≈ 105 µM).

`Cn1c(=S)n(C)c2ccccc21` gave a solubility (kinetic) of over 26.7 µg/mL.

For `COc1ccccc1N1CCN(C(=O)CCc2ccccc2)CC1`, the solubility (kinetic) was over 48.7 µg/mL.

`CC(CCc1ccccc1)NC(=O)CN1CCc2ccccc2C1` (stereo unspecified): the kinetic solubility came out at 47.3 µg/mL (≈ 147 µM).

The compound `Cc1ccc(C(=O)CCC(=O)N2CCC(C(N)=O)CC2)cc1` registered a kinetic solubility of 43.5 µg/mL (≈ 144 µM).

The compound `CCNC(=S)Nc1cccc(NC(=O)c2ccccc2O)c1` returned a kinetic solubility of 42 µg/mL (≈ 133 µM).

In the case of `C/C(=N\O)c1c(O)cc(-c2ccccc2)n(-c2ccccc2)c1=O`, the solubility (kinetic) was over 48.1 µg/mL.

Consider `COc1ccc(S(N)(=O)=O)cc1C(=O)OCC(=O)Nc1ncc(Cl)c(C)c1Cl`, for which the solubility (kinetic) stood at 24 µg/mL (≈ 53.5 µM).

As to `O=C(COC(=O)c1ccc(F)cc1F)NCc1ccc2c(c1)OCO2`, the solubility (kinetic) came to 4.9 µg/mL (≈ 14 µM).

Turning to `Cc1csc(NC(=O)c2ccc(C)s2)n1`, the kinetic solubility was found to be 25.9 µg/mL (≈ 109 µM).

`CC1(C)NC(=O)N(CCCCOc2ccc(Cl)cc2C=O)C1=O`: the kinetic solubility worked out at 47.6 µg/mL (≈ 140 µM).

On to `CCOC(=O)c1nc(NCc2ccccc2)c2ccccc2n1`, for which the solubility (kinetic) was determined as 27.4 µg/mL (≈ 89.1 µM). This solubility kinetic is about 1.7-fold lower than that of the compound before.

As for `O=Cc1c(-c2ccccc2)nc2ccccn12`, the kinetic solubility is over 33.3 µg/mL.

With `CCCc1nnc(SCC(=O)Nc2cc(C)on2)n1CCOC`, the solubility (kinetic) is over 50.9 µg/mL.

In turn, `O=C(COC(=O)c1cc[n+]([O-])cc1)Nc1cccc(F)c1` yielded a kinetic solubility of over 43.5 µg/mL.

Compound `CN(C)c1ccc(Nc2cc(Cl)ncn2)cc1` yielded a kinetic solubility of 9 µg/mL (≈ 36.2 µM).

In turn, `COC(=O)c1cc(NC(=O)c2cccs2)ccc1N1CCOCC1` displayed a kinetic solubility of 43.5 µg/mL (≈ 126 µM).

On to `COc1ccccc1C(=O)N(Cc1ccccc1)c1ccc(C)cc1`, for which the solubility (kinetic) is 24.1 µg/mL (≈ 72.7 µM).

Compound `Cc1cccc(NC(=O)c2ccc(COc3ccccc3)o2)n1` returned a kinetic solubility of 4.8 µg/mL (≈ 15.6 µM).

`O=[N+]([O-])c1ccccc1-c1ccc(C(=S)N2CCCC2)o1` returned a kinetic solubility of 9.4 µg/mL (≈ 31.1 µM).

In turn, `COc1ccc(OC(=O)N2CCOCC2)cc1` yielded a kinetic solubility of over 35.6 µg/mL.

On to `CN(CC(=O)O)S(=O)(=O)c1ccc2c(c1)n(C)c(=O)c(=O)n2C`, for which the solubility (kinetic) is over 51.2 µg/mL.

`COc1ccc(CCNc2nc(-c3ccc(O)cc3)cs2)cc1OC` returned a solubility (kinetic) of 29.2 µg/mL (≈ 81.9 µM).

As to `NC(=O)c1c(NC(=O)c2ccncc2)sc2c1CCCCCC2`, the kinetic solubility is 7 µg/mL (≈ 21.2 µM).

Turning to `Cc1c(NC(=O)CSCc2ccc(Cl)cc2Cl)cccc1C(=O)O`, the kinetic solubility was over 57.6 µg/mL.
